Experiment [1] has as its system AZA-S SKM1 cells. Nature of the experiment: XTT cell metabolism assay in AZA-S SKM1 cells. The following applies: for cell metabolism (XTT) / inhibitory effect on cell metabolism in presence of Z-VAD-fmk: 24 h; for inhibitory effect on cell metabolism in presence of Z-VAD-fmk: 50 μM Z-VAD-fmk. The class given is cell-based, human. The method, then:
(§1) FIGS. 6 and 7 illustrate respectively the efficiency of acadesine in SKM1-S and SKM1-R cells. In FIG. 6, AZA-S SKM1 cells were incubated for 24 h with increased doses of ACA (acadesine). In FIG. 7, AZA-R SKM1 cells were incubated for 24 h with increased doses of ACA. Cell metabolism was then assessed by using the XTT assay in both assays. Results represent the mean+/−SEM of three independent experiments made in quadruplicates.
FIGS. 10 and 11 illustrate the efficacy of acadesine in AZA-S and AZA-R cells. […] For this experiment, AZA-S SKM1 cells were incubated for 24 h with 1 μM Azacitidine or 1 mM Acadesine in either the presence or the absence of 50 μM Z-VAD-fmk. Cell metabolism was assessed using the XTT assay. Results represent the mean+/−SEM of three independent experiments achieved in quadruplicates. […] For this experiment, AZA-R SKM1 cells were incubated for 24 h with 1 μM Azacitidine or 1 mM Acadesine in either the presence or the absence of 50 μM Z-VAD-fmk. Cell metabolism was assessed using the XTT assay. Results represent the mean+/−SEM of three independent experiments achieved in quadruplicates.
For the cell metabolism assessment, 15×10^3 cells were incubated in a 96-well plate for different times with various concentrations of Azacitidine in a final volume of 100 μL. After 16, 24 or 48 h, 50 μL of XTT reagent was added to each well. The absorbance of the formazan product, reflecting cell metabolism, was measured at […]. Each assay was performed in quadruplicate.
The cell metabolism assessment was made in an identical manner as described in example 3.
A general note: Formazan colour is commonly taken as a measure of viable cells.

Experiment [2] relates to AZA-R SKM1 cells. As to the kind of experiment: cells. The class given is cell-based. The following applies: Homo sapiens. The method, then: as §1
FIGS. 10 and 11 illustrate the efficacy of acadesine in AZA-S and AZA-R cells. […] For this experiment, AZA-S SKM1 cells were incubated for 24 h with 1 μM Azacitidine or 1 mM Acadesine in either the presence or the absence of 50 μM Z-VAD-fmk. Cell metabolism was assessed using the XTT assay. Results represent the mean+/−SEM of three independent experiments achieved in quadruplicates. […] For this experiment, AZA-R SKM1 cells were incubated for 24 h with 1 μM Azacitidine or 1 mM Acadesine in either the presence or the absence of 50 μM Z-VAD-fmk. Cell metabolism was assessed using the XTT assay. Results represent the mean+/−SEM of three independent experiments achieved in quadruplicates. […]
For the cell metabolism assessment, 15×10^3 cells were incubated in a 96-well plate for different times with various concentrations of Azacitidine in a final volume of 100 μL. […] The absorbance of the formazan product, reflecting cell metabolism, was measured at 490 nM. […]

Experiment [3] concerns AZA-S SKM1 cells. As to the kind of experiment: Caspase 3 / caspase 9 activity assay in AZA-S SKM1 cells. Type of experiment: cell-based, human. How it is done:
(§2) FIG. 1 illustrates AZA-induced apoptosis in AZA-SKM1 cells as assessed by caspase 3 assay. In this figure, cells were incubated for different times with 1 μM Azacitidine. Caspase activities were determined in quadruplicates using 0.2 mM Ac-DEVD-AMC as substrate.
(§3) FIG. 2 illustrates AZA-induced apoptosis in AZA-SKM1 cells as assessed by caspase 9 assay. In this figure, cells were incubated for different times with 1 μM Azacitidine. Caspase activities were determined in quadruplicates using 0.2 mM Ac-LEHD-AMC as substrate.
(§4) In this experiment, cells were incubated for 24 h with 1 μM Azacitidine or 1 mM ACA. Cell extracts were then prepared and caspase activities were determined in quadruplicates using 0.2 mM Ac-DEVD-AMC as substrate.
(§5) For these caspase assays, 10^6 cells/mL were incubated for different times at 37° C. with 1 μM Azacitidine. After stimulation, cells were lysed for 30 min at 4° C. Cellular extracts were incubated in 96-well plates with either Ac-DEVD-AMC (caspase 3) or Ac-LEHD-AMC (caspase 9) as substrates. Each experiment was performed in quadruplicates and repeated at least three times.

Experiment [4] has as its system AZA-R SKM1 cells. Nature of the experiment: Caspase 3 / caspase 9 activity assay in AZA-R SKM1 cells. Type of experiment: cell-based, human. How it is done:
as §2, §3, §4, §5

Experiment [5] concerns AZA-R SKM1 cells. Nature of the experiment: Cathepsin B activity assay in AZA-R SKM1 cells. Type of experiment: cell-based, human. The method, then: (§6) For this experiment cells were incubated for increasing times with 1 μM AZA. Cell extracts were prepared and Cathepsin B activity determined in quadruplicatesusing Z-RR-AMC as substrates. […] In this experiment cells were incubated for 24 h with 1 μM Azacitidine or 1 mM ACA. Cell extracts were prepared and Cathepsin B activity was determined in quadruplicates using Z-RR-AMC as substrate. For these Cathepsin B assays, 10^6 cells/mL were incubated for different times at 37° C. with 1 μM Azacitine. After stimulation, cells were lysed for 30 min at 4° C. Cellular extracts were incubated in 96-well plates with […] (Cathepsin B) as substrate. This experiment was performed in quadruplicates and repeated at least three times.

Experiment [6] deals with bone marrow cells of 7 AZA-sensitive patients. As to the kind of experiment: XTT cell metabolism assay on bone marrow cells of AZA-sensitive patients. The class given is cell-based, human. Conditions: bone marrow cells of AZA-sensitive patients (n=7), 1 mM Acadesine. The method, then:
For this experiment, bone marrow cells of 7 AZA-sensitive patients were treated with 1 μM Azacitidine or 1 mM Acadesine. Cell metabolism was assessed using the XTT assay. Results represent the mean+/−SEM of three independent experiments achieved in quadruplicates.
(§7) In the following examples, bone marrow samples were collected from 15 patients treated by Azacitidine. […] The diagnosis of MDS or AML was based on standard WHO criteria (Vardiman et al., Blood 2009). Patients were to receive Azacitidine at the FDA/EMEA approved schedule (75 mg/m^2/d, 7 d/4 weeks). Patients having received one or more than one cycle of Azacitidine and who had bone marrow evaluation after at least four cycles, or who died or progressed before completion of four cycles were considered evaluable (the last two groups were considered as treatment failures). Responses were scored according to IWG 2006 criteria for MDS and to Cheson et al. (JCO 2003) for AML.
(§8) Acadesine efficiency was next investigated on fifteen primary cell samples from MDS or AML patients treated or not by AZA. Samples from seven Azacitidine sensitive patients (FIG. 12) and eight samples from Azacitidine resistant patients were included in this experiment and analyzed by the XTT assay (FIG. 13). As previously described for AZA-R SKM1 cells, Acadesine was more efficient to kill cells from Azacitidine resistant patients.

For experiment [7], the system named is bone marrow cells of 8 AZA-resistant patients. As to the kind of experiment: XTT cell metabolism assay on bone marrow cells of AZA-resistant patients. The class given is cell-based, human. The following applies: 1 mM Acadesine. The method, then: For this experiment, bone marrow cells of 8 AZA-resistant patients were treated with 1 μM Azacitidine or 1 mM Acadesine. Cell metabolism was assessed using the XTT assay. Results represent the mean+/−SEM of three independent experiments achieved in quadruplicates.
as §7, §8

Experiment [8] concerns AZA-resistant patient bone marrow cells. As to the kind of experiment: LC3 I / LC3 II western blot on AZA-resistant patient bone marrow cells. The following applies: one Azacitidine resistant patient, 1 mM Acadesine, 24 h. The class given is cell-based, human. The method, then:
In this experiment LC3 I and LC3 II expression was assessed by Western-Blot on cell extracts prepared from AZA-resistant patient bone marrow cells incubated for 24 h with 1 mM Acadesine.
as §8
In general terms: A western blot detects proteins with antibodies after separation by electrophoresis.

Experiment [9] deals with AZA-R SKM1 cells. As to the kind of experiment: PARP cleavage by western blot in AZA-R SKM1 cells. The class given is cell-based, human. The following applies: 1 μM Azacitidine, 16 h. The method, then:
In this experiment, PARP cleavage was assessed by western-blot on cell extracts prepared from AZA-S and AZA-R cells incubated for 16 h with 1 μM Azacitidine. For the Western Blot analysis, cells were first stimulated by 1 μM Azacitidine for the indicated times, then cells were harvested and lysed in buffer containing 1% Triton X-100 and supplemented with protease and phosphatase inhibitors (Roche Diagnostics) as previously described. Lysates were pelleted, and 50 μg of protein were analyzed by SDS-PAGE.

Experiment [10] deals with AZA-S SKM1 cells. Nature of the experiment: Autophagy western blot (LC3-I/LC3-II, P-S6) in AZA-S SKM1 cells. Type of experiment: cell-based, human. The following applies: 1 μM AZA. How it is done:
(§9) FIG. 4 illustrates increased basal autophagy and decreased AZA-mediated autophagy in AZA-R cells. In this experiment, cells were incubated for increasing times with 1 μM AZA. LC3-I and LC3-II, S6 ribosomal protein (P-S6), and its phosphorylated form were visualized by western blot.
(§10) For the Western Blot analysis, cells were first stimulated by 1 μM Azacitidine for the indicated times, then cells were harvested and lysed in buffer containing 1% Triton X-100 and supplemented with protease and phosphatase inhibitors (Roche Diagnostics) as previously described. Lysates were pelleted, and 50 μg of protein were analyzed by SDS-PAGE.

Experiment [11] has as its system AZA-R SKM1 cells. As to the kind of experiment: Autophagy western blot (LC3-I/LC3-II, P-S6) in AZA-R SKM1 cells. Type of experiment: cell-based, human. The following applies: 1 μM AZA. How it is done:
as §9, §10

The test system of experiment [12] is AZA-S SKM1 cells. As to the kind of experiment: Cathepsin B activity assay in AZA-S SKM1 cells. The class given is cell-based, human. The following applies: Azacitidine. How it is done: as §6
The subject of experiment [13] is high-risk Myelodysplasic syndrome (MDS) or acute myeloid leukemia (AML) patients. Conditions: cited from earlier work.

SMILES strings stand for the structures.

For the molecule `NC(=O)c1ncn([C@@H]2O[C@H](CO)[C@@H](O)[C@H]2O)c1N` [Acadesine, acadesine], the “cell metabolism (XTT)” value in the experiment with AZA-S SKM1 cells [1] (1 mM Acadesine) is on record as “drastically inhibited cell metabolism”; in experiment [6] it was “inhibits cell metabolism”; in experiment [7], “strongly inhibits cell metabolism”. In addition, the “inhibitory effect on cell metabolism in presence of Z-VAD-fmk” value with AZA-S SKM1 cells [1] (1 mM Acadesine) was “independently of caspases”. In addition, the IC50 in the experiment on AZA-S SKM1 cells [1] (Homo sapiens, SKM-1, 24 h, XTT assay, read-out: half-maximal inhibition of cell metabolism) worked out at 250 µM; with AZA-R SKM1 cells [2] (SKM-1, AZA-R SKM1 cells, 24 h, XTT assay, read-out: half-maximal inhibition of cell metabolism), 250 µM. In the experiment on AZA-R SKM1 cells [2] (SKM-1, 24 h, read-out: reduction of cell viability), the cytotoxicity at 1000 µM amounted to 60%. Further, the “apoptosis (caspase activity, Ac-DEVD-AMC)” value in the experiment on AZA-S SKM1 cells [3] (1 mM ACA, 24 h) is on record as “does not induce apoptosis”; in the experiment with AZA-R SKM1 cells [4] (1 mM ACA, 24 h), “does not induce apoptosis”. The “Cathepsin B activity” value with AZA-R SKM1 cells [5] (1 mM ACA, 24 h) is on record as “increase of Cathepsin B activity”. For the same molecule, the “induction of autophagy (conversion of LC3-I into LC3-II)” value in [8] is given as “induction of autophagy by Acadesine was confirmed”.
`Nc1ncn([C@@H]2O[C@H](CO)[C@@H](O)[C@H]2O)c(=O)n1` [Azacitidine]: the “cell metabolism (XTT)” value with AZA-S SKM1 cells [1] (1 μM Azacitidine) is “efficiently reduced cell metabolism”. Moreover, the “inhibitory effect on cell metabolism in presence of Z-VAD-fmk” value in the experiment with AZA-S SKM1 cells [1] (1 μM Azacitidine) is given as “reverted by Z-VAD-fmk”. In addition, the “caspase 3 activation (hydrolysis of Ac-DEVD-AMC)” value in the experiment on AZA-S SKM1 cells [3] (1 μM Azacitidine, 8-16 h) is on record as “induced”; in the experiment on AZA-R SKM1 cells [4] (1 μM Azacitidine), “no caspase activities was induced”. Moreover, the “caspase 9 activation (hydrolysis of LEHD-AMC)” value with AZA-S SKM1 cells [3] (1 μM Azacitidine, 8-16 h) was “induced”; in the experiment with AZA-R SKM1 cells [4] (1 μM Azacitidine), “no caspase activities was induced”. For the same molecule, the “caspase 3 activity (Ac-DEVD-AMC)” value in the experiment on AZA-S SKM1 cells [3] (1 μM Azacitidine, 24 h) is on record as “induced caspase 3 activity”; in the experiment on AZA-R SKM1 cells [4] (1 μM Azacitidine, 24 h), “no increase”. Further, in the experiment with AZA-R SKM1 cells [9], the “cleavage of PARP (western blot)” value was “no AZA-mediated cleavage of PARP was detected”. The “ribosomal protein S6 phosphorylation (index of mTOR inhibition)” value with AZA-S SKM1 cells [10] and in the experiment with AZA-R SKM1 cells [11] was “inhibition of ribosomal protein S6 phosphorylation” each time. The “LC3-II accumulation (autophagy)” value was “time-dependent accumulation of LC3-II” in the experiment on AZA-S SKM1 cells [10] (increasing times) and “not further stimulated” in the experiment on AZA-R SKM1 cells [11] (increasing times). Also, the “Cathepsin B activity” value with AZA-S SKM1 cells [12] is reported as “induces”; in the experiment with AZA-R SKM1 cells [5] (1 μM AZA, increasing times), “increased”. In experiment [13], the “proportion of patients refractory” value is given as “approximately 40%”.

The values above are taken from patent US8895520B2, “Method for treating a human patent suffering from Myeloid Neoplasias using 5-aminoimidazole-4-carboxamide” (Universite Nice Sophia Antipolis, priority 2011, dated 2014).
